Measurements from US20260191965A1 (priority 2022, published 2026).

Key:
[1] = test system: Mycobacterium tuberculosis H37Rv (ATCC 27294); format: cell-based
[2] = test system: clinical isolates of Mycobacterium tuberculosis; assay: microbe, parasite or virus in culture; format: cell-based

Row | Structure (SMILES) | effect on growth of rifamycin-sensitive and rifamycin-resistant tuberculosis strains under anaerobic conditions [1] | MIC range against tuberculosis strains resistant to rifampicin and metronidazole [2]
1 | Cc1ncc([N+](=O)[O-])n1CCO [Metronidazole, metronidazole] | a certain inhibitory effect | 
2 | CO[C@H]1/C=C/O[C@@]2(C)Oc3c(C)c(O)c4c(c3C2=O)C2=NC3(CCN(CCn5c([N+](=O)[O-])cnc5C)CC3)NC2=C(NC(=O)/C(C)=C\C=C\[C@H](C)[C@H](O)[C@@H](C)[C@@H](O)[C@@H](C)[C@H](OC(C)=O)[C@@H]1C)C4=O |  | 0.5 to 2 µg/mL
